{
  "source": "patent US8957019B2",
  "about": "“Oligopeptide for treating liver fibrosis and/or treating hepatitis B and/or improving liver function” (priority 2011, dated 2015)",
  "key": {"[1]": {"system": "mice with liver injury induced by carbon tetrachloride", "test": "acute liver injury of mice induced by carbon tetrachloride", "type": "in vivo, Kunming mice", "settings": "for serum ALT activity / serum AST activity: blood 12 h after CCl4; for serum ALT activity / serum AST activity / GSH-PX activity of liver tissue / MDA content of liver tissue: x ± s, n = 12; for GSH-PX activity of liver tissue / MDA content of liver tissue: liver homogenate", "experimental": "According to random number table, 60 male Kunming mice were divided into a normal control group, a model control group, a bifendate group, a heptapeptide large dose group and a heptapeptide small dose group, and the latter two groups were administered subcutaneously at 0.17 mg/kg and 0.085 mg/kg, respectively, once every two days for 7 d; the bifendate group was intragastric administered at 100 mg/kg once daily for 7 d; and the normal control group and model control group were administered subcutaneously with the same volume of physiological saline; after 1 h after the last administration, except for the normal control group, other groups were given olive oil solution comprising 0.15% carbon tetrachloride at 5 mL/kg by intraperitoneal injection. Each group was fasted but not restraint from water. Blood was taken from eyeball after 12 h, and the serum was separated for use. The mice were killed after the blood was taken, then dissected and the liver were taken out and homogenized for use. For mice from each group, the ALT, AST activities in the serum, and GSH-Px activity and MDA content in liver tissue were measured according to the kit instruction, and all data were expressed as mean±standard deviation (x±SD), and analysis of variance was used for the hypothesis test of mean value differences between each group."}, "[2]": {"system": "duck hepatitis B virus (DHBV)", "type": "in vivo, Beijing ducks", "settings": "for A (3 d after administration was terminated), serum DHBV-DNA level: 3 d after stop; for A (3 d after administration was terminated), serum DHBV-DNA level / A (5 d after administration), serum DHBV-DNA level / A (10 d after administration), serum DHBV-DNA level / A (before administration), serum DHBV-DNA level: x ± s, n = 6; for A (5 d after administration), serum DHBV-DNA level: day 5 of administration; for A (10 d after administration), serum DHBV-DNA level: day 10 of administration; for A (before administration), serum DHBV-DNA level: baseline before administration, absorbance 490 nm", "experimental": "2.1 DHBV infection: Beijing ducks of one-day-old were administered from leg tibia (iv) with high DHBV-DNA positive duck serum. Blood was taken 7 d after infection, followed by the serum being separated and kept at -70° C.\n2.2 experiment for pharmaceutical treatment: the DHBV infected ducks were divided into groups randomly, and for the heptapeptide administration groups, 0.5 mg/Kg and 1 mg/Kg were administered by subcutaneous injection, once every two days for 10 d, respectively. As for the virus control group, physiological saline was substituted for drugs. […] Venous blood was taken from the duck leg tibia before administration, on day 5 of administration, on day 10 of administration and 3 d after the administration was stopped. The serum was separated and kept at -70° C. for inspection.\n2.3 detecting method: the duck serum for inspection above mentioned was taken and the dynamic level of DHBV-DNA in the serum was detected by simultaneous spotting each batch. DHBV-DNA probe was tagged with 32 p according to the instructions of nick translation kits, and then dot blot hybridization with the duck serum was carried out. The spots on the film were detected by radioautography, and the absorbance (A) (490 nm) was measured. Then density of serum DHBV-DNA was calculated by using the A value of hybridization spots as the level of DHBV-DNA in sample.\n2.4 efficacy calculation: the x±s of serum DHBV-DNA levels at different time point for each group was calculated, and it is carried out to compare the states before and after administration for each group by using paired t-test. The inhibition ratio of DHBV-DNA was calculated and the dynamic change of the duck serum DHBV-DNA inhibition ratio for each group was compared. The administration groups were compared with the virus control group by using group t-test. The DHBV-DNA inhibition ratio=(A value before administration-A value after administration)/A value before administrationx100%."}, "[3]": {"system": "rats with liver fibrosis", "test": "CCl4 liver fibrosis model of rats", "type": "in vivo, SD rats", "settings": "for collogen area of liver tissue / serum ALT level / serum AST level: 8 weeks, x ± s, n = 12", "experimental": "2. Methods: 48 rats were randomly divided into a control group, a model group, a heptapeptide large dose group and a heptapeptide small dose group, each group contains 12 rats. CCI4was formulated into 40% solution with olive oil, and the solution was then injected subcutaneously to the animals at 5 ml/kg twice a week for 8 weeks; the intervention group with GAGPHGG was given the heptapeptide subcutaneously (the concentrations was 0.12 mg/kg and 0.06 mg/kg, respectively, once every two days, 8 weeks) while the model was setting up. The animals of each group were killed at 48 h after the last injection of CCI4, and then serum and liver tissue were taken for detection. The serum ALT, AST and TGFβ1 level were measured according to the kit instruction, and the liver tissue sample was fixed with neutral formalin solution and imbedded with paraffin. 5 ttm tissue section was made by using glass slide coated with polylysine, and it was then stained with HE and Masson triplication collogen for histopathological examination."}, "[4]": {"settings": "100 mg/kg intragastric once daily for 7 d"}, "[5]": {"settings": "0.5 mg/kg s.c. once every two days"}, "[6]": {"settings": "0.085 mg/kg s.c. once every two days for 7 d"}, "[7]": {"settings": "0.17 mg/kg s.c. once every two days for 7 d"}, "[8]": {"settings": "large dose and small dose groups, P<0.01"}, "[9]": {"settings": "0.06 mg/kg s.c. once every two days"}, "[10]": {"settings": "0.12 mg/kg s.c. once every two days"}, "[11]": {"settings": "heptapeptide large dose, P<0.01"}},
  "note": "Where two headings read alike, the source gives them in different places. Marks after values point to notes of the source that are not given here. Peptide text beside a SMILES is read from it.",
  "data": [
    {"smiles": "COC(=O)c1cc(OC)c2c(c1-c1c(C(=O)OC)cc(OC)c3c1OCO3)OCO2", "note": "[biphenyldicarboxylate, bifendate, reference compound]", "values": [
      {"measurement": "serum ALT activity", "setting": "[1]; [4]", "result": "92.36 ± 35.27", "unit": "U/L"},
      {"measurement": "serum AST activity", "setting": "[1]; [4]", "result": "156.24 ± 34.12", "unit": "U/L"},
      {"measurement": "GSH-PX activity of liver tissue", "setting": "[1]; [4]", "result": "296.82 ± 18.31", "unit": "µmol/g"},
      {"measurement": "MDA content of liver tissue", "setting": "[1]; [4]", "result": "5.29 ± 1.25", "unit": "µmol/g"}
    ]},
    {"smiles": "C[C@H](NC(=O)CN)C(=O)NCC(=O)N1CCC[C@H]1C(=O)N[C@@H](Cc1c[nH]cn1)C(=O)NCC(=O)NCC(=O)O", "note": "[heptapeptide, Gly-Ala-Gly-Pro-His-Gly-Gly] (H-GAGPHGG-OH; N-terminus assumed)", "values": [
      {"measurement": "A (3 d after administration was terminated), serum DHBV-DNA level", "setting": "[2]; 0.5 mg/kg s.c. once every two days for 10 d", "result": "1.184 ± 0.19"},
      {"measurement": "A (5 d after administration), serum DHBV-DNA level", "setting": "[2]; [5]", "result": "1.239 ± 0.16"},
      {"measurement": "A (10 d after administration), serum DHBV-DNA level", "setting": "[2]; [5]", "result": "1.198 ± 0.18"},
      {"measurement": "inhibition of duck hepatitis B virus (conclusion)", "setting": "[2]; 1 mg/kg", "result": "can inhibit duck hepatitis B virus to some extent"},
      {"measurement": "A (3 d after administration was terminated), serum DHBV-DNA level", "setting": "[2]; 1 mg/kg s.c. once every two days for 10 d, P < 0.01 vs control", "result": "0.884 ± 0.16"},
      {"measurement": "A (5 d after administration), serum DHBV-DNA level", "setting": "[2]; 1 mg/kg s.c. once every two days", "result": "1.204 ± 0.21"},
      {"measurement": "A (10 d after administration), serum DHBV-DNA level", "setting": "[2]; 1 mg/kg s.c. once every two days, P < 0.01 vs control", "result": "0.893 ± 0.13"},
      {"measurement": "A (before administration), serum DHBV-DNA level", "setting": "[2]; heptapeptide 0.5 mg/kg s.c. once every two days for 10 d", "result": "1.286 ± 0.12"},
      {"measurement": "A (before administration), serum DHBV-DNA level", "setting": "[2]; heptapeptide 1 mg/kg s.c. once every two days for 10 d", "result": "1.274 ± 0.14"},
      {"measurement": "serum ALT activity", "setting": "[1]; [6]", "result": "123.24 ± 19.73", "unit": "U/L"},
      {"measurement": "serum AST activity", "setting": "[1]; [6]", "result": "186.97 ± 37.56", "unit": "U/L"},
      {"measurement": "GSH-PX activity of liver tissue", "setting": "[1]; [6]", "result": "267.18 ± 32.13", "unit": "µmol/g"},
      {"measurement": "MDA content of liver tissue", "setting": "[1]; [6]", "result": "6.48 ± 1.65", "unit": "µmol/g"},
      {"measurement": "serum ALT activity", "setting": "[1]; [7]", "result": "86.52 ± 28.72", "unit": "U/L"},
      {"measurement": "serum AST activity", "setting": "[1]; [7]", "result": "148.62 ± 31.25", "unit": "U/L"},
      {"measurement": "GSH-PX activity of liver tissue", "setting": "[1]; [7]", "result": "308.28 ± 38.54", "unit": "µmol/g"},
      {"measurement": "MDA content of liver tissue", "setting": "[1]; [7]", "result": "2.75 ± 1.36", "unit": "µmol/g"},
      {"measurement": "serum ALT, AST activities compared with model control group", "setting": "[1]; large dose (0.17 mg/kg) and small dose (0.085 mg/kg) groups, P <0.01", "result": "declined significantly"},
      {"measurement": "liver tissue GSH-Px activities compared with model control group", "setting": "[1]; [8]", "result": "significantly higher than that of the model control group"},
      {"measurement": "liver tissue MDA content compared with model control group", "setting": "[1]; [8]", "result": "significantly lower than that of the model control group"},
      {"measurement": "protection for acute liver injury (conclusion)", "setting": "[1]; mice, carbon tetrachloride", "result": "presents protection for the acute liver injury resulted from carbon tetrachloride"},
      {"measurement": "collogen area of liver tissue", "setting": "[3]; [9]", "result": "380.82 ± 78.89", "unit": "μm^2"},
      {"measurement": "serum ALT level", "setting": "[3]; [9]", "result": "148.24 ± 32.52", "unit": "U/L"},
      {"measurement": "serum AST level", "setting": "[3]; [9]", "result": "180.35 ± 28.49", "unit": "U/L"},
      {"measurement": "collogen area of liver tissue", "setting": "[3]; [10]", "result": "138.12 ± 62.58** μm^2"},
      {"measurement": "serum ALT level", "setting": "[3]; [10]", "result": "96.37 ± 35.12", "unit": "U/L"},
      {"measurement": "serum AST level", "setting": "[3]; [10]", "result": "108.75 ± 42.21", "unit": "U/L"},
      {"measurement": "mean area of liver collagen compared with model group", "setting": "[3]; [11]", "result": "also decreased significantly"},
      {"measurement": "serum TGFβ1 level compared with model group", "setting": "[3]; [11]", "result": "decreased significantly"},
      {"measurement": "serum TGFβ1 level and liver collagen area compared with model group", "setting": "[3]; heptapeptide small dose group", "result": "had a decreasing trend, but not statistically significant"},
      {"measurement": "ALT and AST levels compared with model control group", "setting": "[3]; large dose (0.12 mg/kg) and small dose (0.06 mg/kg) groups, P<0.01", "result": "significantly declined"},
      {"measurement": "anti-liver fibrosis effect (conclusion)", "setting": "[3]; rats, CCl4", "result": "has some anti-liver fibrosis effect"}
    ]}
  ]
}
